Inconclusive results are not listed. Active and inactive are the calls of the source. No rule for the calls is given here.
Tested on: rat and mouse 2-year carcinogenicity bioassay, tumor evidence
Test: Consolidated carcinogenicity assay summary data

Structure (SMILES) | carcinogen call (Route (rodents): Dosed feed) | carcinogen call (Route (rodents): Gavage)
OC(c1ccc(Cl)cc1)(c1ccc(Cl)cc1)C(Cl)(Cl)Cl | active; no evidence | 
OCC(CO)(CBr)CBr | active; clear evidence | 
CCOc1ccc(NC(C)=O)cc1[N+](=O)[O-] | active; no evidence | 
ClC(Cl)(Cl)C(Cl)(Cl)Cl |  | active; clear evidence

— PubChem BioAssay AID2202555 (NIEHS Division of Translational Toxicology (DTT))
